Results reported in patent US20200275665A1, “PREPARATION COMPRISING AT LEAST ONE CHEMICAL FUNGICIDE AND A MIXTURE COMPRISING AUREOBASIDIUM PULLULANS STRAINS” (Erber Aktiengesellschaft, priority 2017, published 2020).
Where “and” joins values, the source holds several entries; their conditions need not be identical. Identical values can stand only once.

Experiments:
[1] = system: Pezicula malicorticis 160622 (DSM 62715); experiment: Apple test (wound inoculation), Pezicula malicorticis 160622; format: in vivo; details: apples Elstar Fuchshof, 20° C., 16 days; Aureobasidium overall 1×10^7 cells/ml; fludioxonil 0.125 g/l, cyprodinil 0.1875 g/l
Description: The effect of the Aureobasidium pullulans strains AP 241 (DSM 32467), AP 268 (DSM 32468), DSM 14940 and DSM 14941 (individually or in combination), together with the chemical fungicides cyprodinil and fludioxonil (individually or in combination), against the fungal plant pathogens Botrytis and Neofabreaea was determined in an apple test. 12 untreated apples of the same cultivar, having a uniform degree of maturity and size, were used for each treatment. Prior to the test, the apples were surface-sterilized for three minutes in 70% ethanol and dried in a clean bench. Four wounds, having a wound diameter of 5 mm, were made at equal distances in each apple in the equatorial plane between the calyx and the stem using a sterile pipette tip. Immediately after the creation of the four artificial wounds, 10 μl of different test solutions (preparations) was applied to each apple. Thereafter, the apples were stored. An area of decay formed around the wounds, the diameter of the area representing a measure of the spread of the infection with the pathogen. For the evaluation, the diameters of the punctures of 0.5 cm each were deducted from the diameter of the decay area.
The 4 test solutions that were each placed in one of the 4 wounds of each apple were: • 1. Pathogen (negative control) • 2. Pathogen and Aureobasidium pullulans (individually or in combination) • 3. Pathogen and chemical fungicide (individually or in combination) • 4. Pathogen and Aureobasidium pullulans (individually or in combination) and chemical fungicide (individually or in combination)
(§1) The effectiveness of the inhibition of the pathogen was calculated for test solutions 2 to 4 from the diameters of the areas of decay, which were measured at the end of the storage period. […]
(§2) According to the Colby formula (S. R. Colby “Calculating synergistic and antagonistic responses of herbicide combinations,” Weeds 15, pages 20 to 22, 1967), expected values (E) of the effect of the combination of Aureobasidium and the chemical fungicide (test solution 4) were calculated from the effectiveness (WG) figures of the individual components in test solutions 2 and 3 according to the following formula: […]
If the measured effectiveness of the combination of the Aureobasidium pullulans strains and the chemical fungicide (test solution 4) is greater than the calculated expected value (E), this is referred to as a synergistic effect (the individual components potentiate each other in an over-additive effect). The synergism factor is a measure of the synergistic effect and was calculated as the quotient from the effectiveness of the combination of the substances or components (test solution 4) and the calculated expected value (E). […]

[2] = system: Botrytis cinerea Bc97 (DSM 32469); experiment: Apple test (wound inoculation), Botrytis cinerea Bc97; format: in vivo; details: apples Jonagold Honsel, 20° C., 6 days; Aureobasidium 5×10^6 cells/ml total; fludioxonil 0.125 g/l, cyprodinil 0.1875 g/l
Description: The effect of the Aureobasidium pullulans strains AP 241 (DSM 32467), AP 268 (DSM 32468), DSM 14940 and DSM 14941 (individually or in combination), together with the chemical fungicides cyprodinil and fludioxonil (individually or in combination), against the fungal plant pathogens Botrytis and Neofabreaea was determined in an apple test. 12 untreated apples of the same cultivar, having a uniform degree of maturity and size, were used for each treatment. Prior to the test, the apples were surface-sterilized for three minutes in 70% ethanol and dried in a clean bench. Four wounds, having a wound diameter of 5 mm, were made at equal distances in each apple in the equatorial plane between the calyx and the stem using a sterile pipette tip. […]
as §1, §2

SMILES	Effectiveness (decrease in diameter of decay area vs. negative control) [1]	Mean diameter of decay areas [1]	Mean diameter of decay areas [2]
N#Cc1c[nH]cc1-c1cccc2c1OC(F)(F)O2 [fludioxonil]	−3.8%	1.91 cm	
Cc1cc(C2CC2)nc(Nc2ccccc2)n1 [cyprodinil]	17.0%	1.61 cm	2.80 cm and 3.14 cm and 2.21 cm and 2.52 cm and 3.63 cm and 3.51 cm and 3.38 cm
